Here are results for 24 compounds from patent US7709471B2, “Compounds” (AstraZeneca AB, priority 2006, dated 2010).

pIC50: −log10 of the molar value.

The test addresses recombinant Plk1 (Homo sapiens, UniProt P53350). Briefly: In Vitro Plk1 Enzyme Assay (SPA, GST-Cdc25C phosphorylation). Type of test: biochemical. To be noted: ATP 64 nM, 90 minutes, read-out: IC50 (Plk1 enzyme inhibition).

recombinant Plk1, sequence (P53350 whole entry): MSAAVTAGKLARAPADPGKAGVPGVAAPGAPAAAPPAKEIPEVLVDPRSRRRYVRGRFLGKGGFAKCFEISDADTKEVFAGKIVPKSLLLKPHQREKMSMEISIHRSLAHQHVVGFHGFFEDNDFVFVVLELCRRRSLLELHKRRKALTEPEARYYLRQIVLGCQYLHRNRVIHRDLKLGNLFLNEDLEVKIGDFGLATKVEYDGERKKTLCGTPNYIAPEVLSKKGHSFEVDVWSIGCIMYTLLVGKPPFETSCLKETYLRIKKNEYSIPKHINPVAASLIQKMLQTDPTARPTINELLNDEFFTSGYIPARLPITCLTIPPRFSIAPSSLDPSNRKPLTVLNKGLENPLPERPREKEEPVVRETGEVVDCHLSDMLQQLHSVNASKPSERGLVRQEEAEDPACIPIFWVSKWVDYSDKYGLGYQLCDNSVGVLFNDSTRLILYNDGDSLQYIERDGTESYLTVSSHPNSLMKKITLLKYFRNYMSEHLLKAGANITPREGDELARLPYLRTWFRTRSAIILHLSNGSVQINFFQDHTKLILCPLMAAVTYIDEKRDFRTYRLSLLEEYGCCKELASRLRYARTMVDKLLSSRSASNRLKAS

As for `CN1C(=O)CCN(C2CCCC2)c2nc(Nc3ccc(Cl)nc3)ncc21` [Example 266, 9-[(6-chloropyridin-3-yl)amino]-6-cyclopentyl-2-methyl-2,6,8,10-tetrazabicyclo[5.4.0]undeca-8,10,12-trien-3-one], the negative-log IC50 (pIC50) is over 4.00.
The value for `CN1C(=O)CCN(C2CCCC2)c2nc(Nc3cccc(C#N)c3)ncc21` [Example 164, 3-[(6-cyclopentyl-2-methyl-3-oxo-2,6,8,10-tetrazabicyclo[5.4.0]undeca-8,10,12-trien-9-yl)amino]benzonitrile] was over 4.00.
The same measure for `CN(C)CC(C)(C)CNC(=O)c1ccc(Nc2ncc3c(n2)N(c2ccccc2)CCC(=O)N3C)c(Cl)c1` [Example 225, 3-chloro-N-(3-dimethylamino-2,2-dimethyl-propyl)-4-[(2-methyl-3-oxo-6-phenyl-2,6,8,10-tetrazabicyclo[5.4.0]undeca-8,10,12-trien-9-yl)amino]benzamide]: over 6.00; for `O=C1CCN(c2ccccc2)c2nc(Nc3ccc(C(=O)NCCN4CCOCC4)cc3)ncc2N1` [Example 249, N-(2-morpholin-4-ylethyl)-4-[(3-oxo-6-phenyl-2,6,8,10-tetrazabicyclo[5.4.0]undeca-7,9,11-trien-9-yl)amino]benzamide]: over 4.00; for `COc1ccc(Nc2ncc3c(n2)N(C2CCCC2)CCC(=O)N3C)cn1` [Example 267, 6-cyclopentyl-9-[(6-methoxypyridin-3-yl)amino]-2-methyl-2,6,8,10-tetrazabicyclo[5.4.0]undeca-8,10,12-trien-3-one]: over 6.00.
Regarding `CN1C(=O)CCN(C2CCCC2)c2nc(Nc3ccccc3NCCN3CCOCC3)ncc21` [Example 156, 6-cyclopentyl-2-methyl-9-[[2-(2-morpholin-4-ylethylamino)phenyl]amino]-2,6,8,10-tetrazabicyclo[5.4.0]undeca-8,10,12-trien-3-one], the pIC50 was over 4.00.
The same measure for `CSc1ccccc1Nc1ncc2c(n1)N(C1CCCC1)CCC(=O)N2C` [Example 141, 6-cyclopentyl-2-methyl-9-[(2-methylsulfanylphenyl)amino]-2,6,8,10-tetrazabicyclo[5.4.0]undeca-8,10,12-trien-3-one]: over 4.00.
As to `CN1C(=O)CCN(C2CCCC2)c2nc(Nc3ccccc3Cc3ccccc3)ncc21` [Example 157, 9-[(2-benzylphenyl)amino]-6-cyclopentyl-2-methyl-2,6,8,10-tetrazabicyclo[5.4.0]undeca-8,10,12-trien-3-one], the negative-log IC50 (pIC50) was over 4.00.
The value for `CN1C(=O)CCN(C2CCCC2)c2nc(Nc3ccccc3Br)ncc21` [Example 147, 9-[(2-bromophenyl)amino]-6-cyclopentyl-2-methyl-2,6,8,10-tetrazabicyclo[5.4.0]undeca-8,10,12-trien-3-one] was over 4.00; that for `COc1ccc(Nc2ncc3c(n2)N(C2CCCC2)CCC(=O)N3C)cc1` [Example 120, 6-cyclopentyl-9-[(4-methoxyphenyl)amino]-2-methyl-2,6,8,10-tetrazabicyclo[5.4.0]undeca-8,10,12-trien-3-one] was over 4.00; that for `CNS(=O)(=O)c1ccccc1Nc1ncc2c(n1)N(C1CCCC1)CCC(=O)N2C` [Example 155, 2-[(6-cyclopentyl-2-methyl-3-oxo-2,6,8,10-tetrazabicyclo[5.4.0]undeca-8,10,12-trien-9-yl)amino]-N-methyl-benzenesulfonamide] was over 4.00.
On to `CN1C(=O)CCN(C2CCCC2)c2nc(Nc3cccc(S(C)(=O)=O)c3)ncc21` [Example 172, 6-cyclopentyl-2-methyl-9-[(3-methylsulfonylphenyl)amino]-2,6,8,10-tetrazabicyclo[5.4.0]undeca-8,10,12-trien-3-one], for which the negative-log IC50 (pIC50) is over 4.00.
Turning to `CN1C(=O)CCN(C2CCCC2)c2nc(Nc3ccccc3CN3CCOCC3)ncc21` [Example 160, 6-cyclopentyl-2-methyl-9-[[2-(morpholin-4-ylmethyl)phenyl]amino]-2,6,8,10-tetrazabicyclo[5.4.0]undeca-8,10,12-trien-3-one], the negative-log IC50 (pIC50) is over 4.00.
For the compound `CCOc1cccc(Nc2ncc3c(n2)N(C2CCCC2)CCC(=O)N3C)c1` [Example 162, 6-cyclopentyl-9-[(3-ethoxyphenyl)amino]-2-methyl-2,6,8,10-tetrazabicyclo[5.4.0]undeca-8,10,12-trien-3-one], the pIC50 was over 6.00.
Take `COc1cc(C(=O)NC2CCN(C)CC2)ccc1Nc1ncc2c(n1)N(Cc1c(C)noc1C)CCC(=O)N2C` [Example 273, 4-[[2-[(3,5-dimethyl-1,2-oxazol-4-yl)methyl]-6-methyl-5-oxo-2,6,9,11-tetrazabicyclo[5.4.0]undeca-7,9,11-trien-10-yl]amino]-3-methoxy-N-(1-methyl-4-piperidyl)benzamide]: the pIC50 was over 4.00.
As for `CN1C(=O)CCN(C2CCCC2)c2nc(Nc3ccccc3Oc3ccccc3)ncc21` [Example 146, 6-cyclopentyl-2-methyl-9-[(2-phenoxyphenyl)amino]-2,6,8,10-tetrazabicyclo[5.4.0]undeca-8,10,12-trien-3-one], the negative logarithm of the IC50 (pIC50) is over 4.00.
Take `CN1C(=O)CCN(C2CCCC2)c2nc(Nc3ccccc3C(=O)c3ccccc3)ncc21` [Example 144, 9-[(2-benzoylphenyl)amino]-6-cyclopentyl-2-methyl-2,6,8,10-tetrazabicyclo[5.4.0]undeca-8,10,12-trien-3-one]: the pIC50 is over 4.00.
As for `C#Cc1cccc(Nc2ncc3c(n2)N(C2CCCC2)CCC(=O)N3C)c1` [Example 168, 6-cyclopentyl-9-[(3-ethynylphenyl)amino]-2-methyl-2,6,8,10-tetrazabicyclo[5.4.0]undeca-8,10,12-trien-3-one], the negative logarithm of the IC50 (pIC50) is over 4.00.
The value for `CN1C(=O)CCN(C2CCCC2)c2nc(Nc3cccc(CNC(=O)OC(C)(C)C)c3)ncc21` [Example 136, tert-butyl N-[[3-[(6-cyclopentyl-2-methyl-3-oxo-2,6,8,10-tetrazabicyclo[5.4.0]undeca-8,10,12-trien-9-yl)amino]phenyl]methyl]carbamate] was over 4.00; that for `COC(=O)[C@H]1CC[C@@H](NC(=O)c2ccc(Nc3ncc4c(n3)N(C3CCCC3)CCC(=O)N4C)c(OC)c2)C1` [Example 65, Methyl(1S,3R)-3-[[4-[(6-cyclopentyl-2-methyl-3-oxo-2,6,8,10-tetrazabicyclo[5.4.0]undeca-8,10,12-trien-9-yl)amino]-3-methoxy-benzoyl]amino]cyclopentane-1-carboxylate] was over 6.00.
The same measure for “6-cyclopentyl-2-methyl-9-[(2,3,4-trimethoxyphenyl)amino]-2,6,8,10-tetrazabicyclo[5.4.0]undeca-8,10,12-trien-3-one [Example 130]”: over 6.00; for `CC(C)c1ccccc1Nc1ncc2c(n1)N(C1CCCC1)CCC(=O)N2C` [Example 150, 6-cyclopentyl-2-methyl-9-[(2-propan-2-ylphenyl)amino]-2,6,8,10-tetrazabicyclo[5.4.0]undeca-8,10,12-trien-3-one]: over 6.00.
In the case of `CN1C(=O)CCN(C2CCCC2)c2nc(Nc3ccccc3S(C)(=O)=O)ncc21` [Example 149, 6-cyclopentyl-2-methyl-9-[(2-methylsulfonylphenyl)amino]-2,6,8,10-tetrazabicyclo[5.4.0]undeca-8,10,12-trien-3-one], the pIC50 was over 4.00.
The same measure for `CCCC1CN(C2CCCC2)c2nc(Nc3ccc(C(=O)NC4CCN(C)CC4)cc3OC)ncc2N(C)C1=O` (single isomer, unassigned) [Example 239]: over 4.00.
